The target in assay [1] is human GABAA α2β2γ1 receptor (Homo sapiens (Human), UniProt P47869+Q8N1C3). Briefly: Radioligand binding assay for γ1-containing GABAA subtypes, [3H]RO7239181 competition (α2β2γ1).
The target of assay [2] is human GABAA α5β2γ1 receptor (Homo sapiens (Human), UniProt P31644+Q8N1C3). The assay is described as follows: Radioligand binding assay for γ1-containing GABAA subtypes, [3H]RO7239181 competition (α5β2γ1).
The target in assay [3] is α2β2γ1 GABAA receptor subtype (Homo sapiens (Human), UniProt P47869+Q8N1C3). Briefly: Two-electrode voltage clamp electrophysiology in Xenopus oocytes expressing GABAA receptors (modulation of GABA EC20 current). The format is cell-based. The settings on record: for Efficacy (GABA)%: % modulation of GABA EC20 = 100*(Fold increase-1), α2β2γ1 oocytes, compound at approx. 30-fold Ki; for Fold increase h-GABA-A α2β2γ1 oocyte @ 30-fold Ki: Xenopus oocytes expressing α2β2γ1, compound at approx. 30-fold its Ki α2β2γ1, GABA EC20 current. An outline of the steps: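 Two-electrode voltage clamp at −80 mV, room temperature, 3-5 days after mRNA injection into oocytes. GABA applied at EC20 for 1.5 min, twice, with compound during second application; at least 3 oocytes per concentration. Efficacy = extremum of point-by-point current ratio, expressed as 100×(fold increase−1).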

In assay [4] the target is human GABAA α1β3γ2 receptor (Homo sapiens (Human), UniProt P14867+P18507). The assay is described as follows: Radioligand binding assay for γ2-containing GABAA subtypes, [3H]Flumazenil competition (α1β3γ2). Conditions: for γ2/γ1 Selectivity Ratio: Ki α1β3γ2 (nM)/Ki α2β2γ1 (nM); for LogSel: Log[Ki α1β3γ2 (nM)/Ki α2β2γ1 (nM)].
The mark [5] stands for this setting: Ki h-GABAA α2β2γ1, [3H]RO7239181 competition binding, human GABAA α2β2γ1.
Where [6] appears, read: Ki h-GABAA α2β2γ1, displacement of [3H]RO7239181, membranes of HEK293F cells expressing human receptors, means of two determinations.

`C[C@@H]1N=C(c2c(F)cccc2F)c2c(ccc(Cl)c2Cl)-n2cc(C(=O)N3CCC3)nc21` [Example 70, azetidin-1-yl-[(4S)-7,8-dichloro-6-(2,6-difluorophenyl)-4-methyl-4H-imidazo[1,2-a][1,4]benzodiazepin-2-yl]methanone] returned a Ki in assay [1] (setting [5]) of 18.7 nM. Affinity in assay [1] (setting [6]) was put at a Ki of 18.7 nM. For the same compound, in assay [2], affinity was put at a Ki of 1.08 nM. Also, in assay [3], the “Efficacy (GABA)%” value is listed as 73% and the “Fold increase h-GABA-A α2β2γ1 oocyte @ 30-fold Ki” value came to 1.73. Further, in assay [4], the Ki was 500 nM, the “γ2/γ1 Selectivity Ratio” value came to 26.7 and the LogSel was 1.43.
Regarding `C[C@@H]1N=C(c2c(F)cccc2F)c2c(ccc(Cl)c2Cl)-n2cc(C(=O)N3CC(C#N)C3)nc21` [Example 71, 1-[(4S)-7,8-dichloro-6-(2,6-difluorophenyl)-4-methyl-4H-imidazo[1,2-a][1,4]benzodiazepine-2-carbonyl]azetidine-3-carbonitrile], the Ki in assay [1] (setting [5]) was 11.9 nM; in assay [1] (setting [6]), 11.9 nM; in assay [2], 1.84 nM; in assay [4], 389 nM. Besides, the “Efficacy (GABA)%” value in assay [3] was found to be 51%. Besides, the “Fold increase h-GABA-A α2β2γ1 oocyte @ 30-fold Ki” value in assay [3] worked out at 1.51. For the same compound, the “γ2/γ1 Selectivity Ratio” value in assay [4] is listed as 32.8. This compound also registered a LogSel in assay [4] of 1.52.
For the compound `C[C@@H]1N=C(c2c(F)cccc2F)c2c(ccc(Cl)c2Cl)-n2nc(C(=O)N3CC(CF)C3)nc21` [Example 72, [3-(fluoromethyl)azetidin-1-yl]-[(4S)-7,8-dichloro-6-(2,6-difluorophenyl)-4-methyl-4H-[1,2,4]triazolo[1,5-a][1,4]benzodiazepin-2-yl]methanone], the Ki in assay [1] (setting [5]) came out at 7.2 nM; in assay [1] (setting [6]), 7.2 nM; in assay [2] it was 1.1 nM; in assay [4], 727 nM. In addition, the “Efficacy (GABA)%” value in assay [3] was 44%. Besides, the “Fold increase h-GABA-A α2β2γ1 oocyte @ 30-fold Ki” value in assay [3] is listed as 1.44. The “γ2/γ1 Selectivity Ratio” value in assay [4] turned out to be 100.6. For the same compound, the LogSel in assay [4] is 2.00.
Regarding `CNS(=O)(=O)c1nc2n(n1)-c1ccc(Cl)c(Cl)c1C(c1c(F)cccc1F)=N[C@H]2C` [Example 73, (4S)-7,8-dichloro-6-(2,6-difluorophenyl)-N,4-dimethyl-4H-[1,2,4]triazolo[1,5-a][1,4]benzodiazepine-2-sulfonamide], the Ki in assay [1] (setting [5]) amounted to 49.1 nM; in assay [1] (setting [6]) it was 49.1 nM; in assay [2] it was 2.97 nM; in assay [4], 2170 nM. Also, the “Efficacy (GABA)%” value in assay [3] was found to be 58%. Besides, the “Fold increase h-GABA-A α2β2γ1 oocyte @ 30-fold Ki” value in assay [3] amounted to 1.58. Moreover, the “γ2/γ1 Selectivity Ratio” value in assay [4] is 44.1. The same compound yielded a LogSel in assay [4] of 1.64.
For `C[C@@H]1N=C(c2c(F)cccc2F)c2c(ccc(Cl)c2Cl)-n2cc(C#N)nc21` [Example 74, (4S)-7,8-dichloro-6-(2,6-difluorophenyl)-4-methyl-4H-imidazo[1,2-a][1,4]benzodiazepine-2-carbonitrile], the Ki is 9.6 nM in assay [1] (setting [5]), 9.6 nM in assay [1] (setting [6]), 0.7 nM in assay [2] and 593 nM in assay [4]. Further, the “Efficacy (GABA)%” value in assay [3] was 75%. The “Fold increase h-GABA-A α2β2γ1 oocyte @ 30-fold Ki” value in assay [3] is recorded as 1.75. Besides, the “γ2/γ1 Selectivity Ratio” value in assay [4] turned out to be 61.8. The compound further returned a LogSel in assay [4] of 1.79.
As for `C[C@@H]1N=C(c2c(F)cccc2F)c2c(ccc(Cl)c2Cl)-n2nc(C(=O)N3CC(C(F)F)C3)nc21` [Example 75, [3-(difluoromethyl)azetidin-1-yl]-[(4S)-7,8-dichloro-6-(2,6-difluorophenyl)-4-methyl-4H-[1,2,4]triazolo[1,5-a][1,4]benzodiazepin-2-yl]methanone], in assay [1] (setting [5]), the Ki was determined as 13.8 nM. For the same compound, the Ki in assay [1] (setting [6]) amounted to 13.8 nM. For the same compound, in assay [2], the Ki was determined as 1.14 nM. Moreover, in assay [3], the “Efficacy (GABA)%” value was determined as 41% and the “Fold increase h-GABA-A α2β2γ1 oocyte @ 30-fold Ki” value was 1.41. For the same compound, in assay [4], the affinity corresponds to a Ki of 737 nM, the “γ2/γ1 Selectivity Ratio” value was 53.4 and the LogSel is 1.73.
The compound `C[C@@H]1N=C(c2c(F)cccc2F)c2c(ccc(Cl)c2Cl)-n2nc(C(=O)N3CC[C@@H](F)C3)nc21` [Example 76, [(4S)-7,8-dichloro-6-(2,6-difluorophenyl)-4-methyl-4H-[1,2,4]triazolo[1,5-a][1,4]benzodiazepin-2-yl]-[(3R)-3-fluoropyrrolidin-1-yl]methanone] displayed a Ki in assay [1] (setting [5]) of 6.1 nM. Also, the affinity in assay [1] (setting [6]), expressed as Ki, was 6.1 nM. This compound showed a Ki in assay [2] of 1.64 nM. In assay [3], the “Efficacy (GABA)%” value was found to be 52% and the “Fold increase h-GABA-A α2β2γ1 oocyte @ 30-fold Ki” value was determined as 1.52. Also, in assay [4], the Ki was found to be 968 nM, the “γ2/γ1 Selectivity Ratio” value worked out at 157.7 and the LogSel is on record as 2.20.
Take `C[C@@H]1N=C(c2c(F)cccc2F)c2c(ccc(Cl)c2Cl)-n2nc(N3CC(C#N)C3)nc21` [Example 77, 1-[(4S)-7,8-dichloro-6-(2,6-difluorophenyl)-4-methyl-4H-[1,2,4]triazolo[1,5-a][1,4]benzodiazepin-2-yl]azetidine-3-carbonitrile]: the affinity in assay [1] (setting [5]), expressed as Ki, was 10.2 nM. The compound also had a Ki in assay [1] (setting [6]) of 10.2 nM. The same compound showed a Ki in assay [2] of 1 nM. In addition, in assay [3], the “Efficacy (GABA)%” value is reported as 69% and the “Fold increase h-GABA-A α2β2γ1 oocyte @ 30-fold Ki” value worked out at 1.69. For the same compound, in assay [4], the Ki is 279 nM, the “γ2/γ1 Selectivity Ratio” value is recorded as 27.2 and the LogSel was 1.44.
For `C[C@@H]1N=C(c2ncccc2F)c2c(ccc(Cl)c2Cl)-n2nc(C(=O)N3CC[C@@H](F)C3)nc21` [Example 78, [(4S)-7,8-dichloro-6-(3-fluoro-2-pyridyl)-4-methyl-4H-[1,2,4]triazolo[1,5-a][1,4]benzodiazepin-2-yl]-[(3R)-3-fluoropyrrolidin-1-yl]methanone], the Ki is 96.3 nM in assay [1] (setting [5]), 96.3 nM in assay [1] (setting [6]), 18.6 nM in assay [2] and 6900 nM in assay [4]. Also, the “Efficacy (GABA)%” value in assay [3] was found to be 98%. The “Fold increase h-GABA-A α2β2γ1 oocyte @ 30-fold Ki” value in assay [3] amounted to 1.98. Moreover, the “γ2/γ1 Selectivity Ratio” value in assay [4] was 71.6. This compound also gave a LogSel in assay [4] of 1.86.
`C[C@@H]1N=C(c2ncccc2F)c2c(ccc(Cl)c2Cl)-n2nc(C(=O)N3CC[C@H](F)C3)nc21` [Example 79, [(4S)-7,8-dichloro-6-(3-fluoro-2-pyridyl)-4-methyl-4H-[1,2,4]triazolo[1,5-a][1,4]benzodiazepin-2-yl]-[(3S)-3-fluoropyrrolidin-1-yl]methanone] yielded a Ki in assay [1] (setting [5]) of 48.4 nM. Moreover, the Ki in assay [1] (setting [6]) worked out at 48.4 nM. The same compound gave a Ki in assay [2] of 7.8 nM. Further, in assay [3], the “Efficacy (GABA)%” value stood at 129% and the “Fold increase h-GABA-A α2β2γ1 oocyte @ 30-fold Ki” value was 2.29. In addition, in assay [4], the Ki was 3720 nM, the “γ2/γ1 Selectivity Ratio” value is 76.8 and the LogSel amounted to 1.89.
As to `C[C@@H]1N=C(c2c(F)cccc2F)c2c(ccc(Cl)c2Cl)-n2nc(C(=O)N3CC[C@H](F)C3)nc21` [Example 80, [(4S)-7,8-dichloro-6-(2,6-difluorophenyl)-4-methyl-4H-[1,2,4]triazolo[1,5-a][1,4]benzodiazepin-2-yl]-[(3S)-3-fluoropyrrolidin-1-yl]methanone], the inhibition constant (Ki) in assay [1] (setting [5]) came out at 14.3 nM. For the same compound, the affinity in assay [1] (setting [6]) corresponds to a Ki of 14.3 nM. Also, the affinity in assay [2], expressed as Ki, was 1.9 nM. In assay [3], the “Efficacy (GABA)%” value stood at 89% and the “Fold increase h-GABA-A α2β2γ1 oocyte @ 30-fold Ki” value was found to be 1.89. In assay [4], the inhibitory constant (Ki) is 979 nM, the “γ2/γ1 Selectivity Ratio” value turned out to be 68.5 and the LogSel turned out to be 1.84.
For `C[C@@H]1N=C(c2c(F)cccc2F)c2c(ccc(Cl)c2Cl)-n2nc(C3COC3)nc21` [Example 81, (4S)-7,8-dichloro-6-(2,6-difluorophenyl)-4-methyl-2-(oxetan-3-yl)-4H-[1,2,4]triazolo[1,5-a][1,4]benzodiazepine], the Ki in assay [1] (setting [5]) is 6.4 nM; in assay [1] (setting [6]), 6.45 nM; in assay [2], 1.63 nM; in assay [4], 563 nM. Moreover, the “Efficacy (GABA)%” value in assay [3] worked out at 53%. For the same compound, in assay [3], the “Fold increase h-GABA-A α2β2γ1 oocyte @ 30-fold Ki” value is on record as 1.53. Also, the “γ2/γ1 Selectivity Ratio” value in assay [4] is reported as 87.4. This compound also showed a LogSel in assay [4] of 1.94.
Regarding `C[C@@H]1N=C(c2c(F)cccc2F)c2c(ccc(Cl)c2Cl)-n2nc(S(C)(=O)=O)nc21` [Example 82, (4S)-7,8-dichloro-6-(2,6-difluorophenyl)-4-methyl-2-methylsulfonyl-4H-[1,2,4]triazolo[1,5-a][1,4]benzodiazepine], in assay [1] (setting [5]), the Ki turned out to be 19.8 nM. Besides, the Ki in assay [1] (setting [6]) stood at 19.8 nM. Besides, affinity in assay [2] was put at a Ki of 3.55 nM. In assay [3], the “Efficacy (GABA)%” value is reported as 75% and the “Fold increase h-GABA-A α2β2γ1 oocyte @ 30-fold Ki” value was found to be 1.75. In assay [4], the affinity corresponds to a Ki of 2130 nM, the “γ2/γ1 Selectivity Ratio” value is given as 107.3 and the LogSel is 2.03.
`Cc1nc2n(n1)-c1ccc(C(F)(F)F)c(Cl)c1C(c1ncccc1F)=N[C@H]2C` [Example 83, (4S)-7-chloro-6-(3-fluoro-2-pyridyl)-2,4-dimethyl-8-(trifluoromethyl)-4H-[1,2,4]triazolo[1,5-a][1,4]benzodiazepine]: in assay [1] (setting [5]), the affinity corresponds to a Ki of 70.8 nM. For the same compound, in assay [1] (setting [6]), the Ki was 70.8 nM. The affinity in assay [2] corresponds to a Ki of 5.54 nM. For the same compound, in assay [3], the “Efficacy (GABA)%” value is given as 154% and the “Fold increase h-GABA-A α2β2γ1 oocyte @ 30-fold Ki” value is reported as 2.54. Moreover, in assay [4], affinity was put at a Ki of 5490 nM, the “γ2/γ1 Selectivity Ratio” value came out at 77.6 and the LogSel is reported as 1.89.

The record behind these values is patent US12365687B2 (Hoffmann-La Roche Inc., priority 2021, dated 2025).
